Assay results published in patent publication US20080113994A1, “Annelated Quinoline Derivatives As Pesticide” (priority 2004, published 2008).

What was measured:
[1] = system: larvae of the army worm (Spodoptera frugiperda); experiment: Spodoptera frugiperda test (spray treatment); format: in vivo; settings: 500 g/ha, sprayed maize leaf disks
Text: Spodoptera frugiperda Test (Spray Treatment)

[2] = system: eggs of the cotton bollworm (Heliothis virescens); experiment: Heliothis virescens egg test (spray treatment); format: in vivo; settings: 500 g/ha, sprayed soybean leaves, 100% = none of the larvae hatched
Text: Heliothis virescens Egg Test (Spray Treatment)

[3] = system: larvae of the cabbage moth (Plutella xylostella); experiment: Plutella test; format: in vivo; settings: for Kill rate in % after 7^d: 100 PPM, dipped cabbage leaves; for efficacy (in words): Plutella test
Text: Solvent: 7 parts by weight of dimethylformamide
Emulsifier: 1 part by weight of alkylaryl polyglycol ether

[4] = system: larvae of the mustard beetle (Phaedon cochleariae); experiment: Phaedon larvae test (spray treatment); settings: sprayed Chinese cabbage leaf disks

| SMILES | Kill rate in % after 7^d [1] [%] | Kill rate in % after 7^d [2] [%] | Kill rate in % after 7^d ([4]; 500 g/ha) [%] | also measured |
| --- | --- | --- | --- | --- |
| COc1cccc(C2C3=C(COC3=O)Nc3cc4c(cc32)OCO4)c1 (stereo not shown) [Example 1, 6,7-(methylenedioxy)-9-(3-methoxyphenyl)-4,9-dihydro-3H-furo[3,4-b]quinolin-1-one] | 100 |  |  |  |
| O=C1OCC2=C1C(c1cccc(Cl)c1)c1cc3c(cc1N2)OCO3 (stereo not shown) [Example 6] | 100 | 98 |  | Kill rate in % after 7^d [3]: 100%; efficacy (in words) [3]: high efficacy |
| COc1ccc2c(c1)C(c1cc(OC)c(OC)c(OC)c1)C1=C(COC1=O)N2 (stereo not shown) [Example 8, 7-methoxy-9-(3,4,5-trimethoxyphenyl)-4,9-dihydro-3H-furo[3,4-b]quinolin-1-one] |  |  | 100 |  |
| COc1ccc2c(c1)NC1=C(C(=O)OC1)C2c1cc(OC)c(OC)c(OC)c1 (stereo not shown) [Example 9] | 100 |  |  | Kill rate in % after 7^d [3]: 90%; efficacy (in words) [3]: high efficacy |
| O=C1OCC2=C1C(c1cc(Cl)cc(Cl)c1)c1cc3c(cc1N2)OCO3 (stereo not shown) [Example 12] |  | 100 | 100 |  |
| O=C1OCC2=C1C(c1cc(F)cc(F)c1)c1cc3c(cc1N2)OCO3 (stereo not shown) [Example 16] | 100 | 97 |  |  |
| O=C1OCC2=C1C(c1ccccc1)c1cc3c(cc1N2)OCO3 (stereo not shown) [Example 17] | 100 |  |  |  |
| O=C1OCC2=C1C(c1cccc(Br)c1)c1cc3c(cc1N2)OCO3 (stereo not shown) [Example 18] |  | 98 | 100 |  |
| Cc1cccc(C2C3=C(COC3=O)Nc3cc4c(cc32)OCO4)c1 (stereo not shown) [Example 19] | 100 |  |  |  |
| O=C1OCC2=C1C(c1cccc(F)c1)c1cc3c(cc1N2)OCO3 (stereo not shown) [Example 20] |  | 96 | 83 |  |
| Cc1cc(C)cc(C2C3=C(COC3=O)Nc3cc4c(cc32)OCO4)c1 (stereo not shown) [Example 23] | 100 | 98 |  |  |
| CC1(C)CC(=O)C2=C(C1)Nc1cc3c(cc1C2c1cccc(Cl)c1)OCO3 (stereo not shown) [Example 31] |  | 83 |  |  |
| CC1CC2=C(C(=O)O1)C(c1cccc(Cl)c1)c1cc3c(cc1N2)OCO3 (stereo not shown) [Example 35] | 100 |  | 100 |  |
| CN1OC(C)(C)C2=C(C1=O)C(c1cccc(Cl)c1)c1cc3c(cc1N2)OCO3 (stereo not shown) [Example 36] |  | 80 |  |  |
| COc1cc(OC)cc(C2C3=C(Nc4cc5c(cc42)OCO5)C(C)OC3=O)c1 (stereo not shown) [Example 45] | 100 | 98 | 100 |  |
| COc1cc(OC)cc(C2C3=C(CCC3=O)Nc3cc4c(cc32)OCO4)c1 (stereo not shown) [Example 56] | 100 | 80 | 100 |  |
| COc1cc(C2C3=C(COC3=O)Nc3cc4c(cc32)OCO4)cc(OC)c1OC (stereo not shown) [Example 61] |  |  | 100 |  |
| COc1cc(C2C3=C(COC3=O)N(C)c3cc4c(cc32)OCO4)cc(OC)c1OC (stereo not shown) [Example 69] |  |  | 100 |  |
| COc1cc(C2C3=C(COC3=O)Nc3cc4c(cc32)OC(F)(F)O4)cc(OC)c1OC (stereo not shown) [Example 70] |  |  | 100 |  |
| COc1cc(OC)cc(C2C3=C(COC3=O)Nc3cc(OC)c(OC)cc32)c1 (stereo not shown) [Example 73] | 83 |  | 83 |  |
| COc1cc(OC)cc(C2C3=C(COC3=O)Nc3cc4c(cc32)OCCO4)c1 (stereo not shown) [Example 74] | 100 |  |  |  |
| COc1cc(OC)cc(C2C3=C(COC3=O)Nc3cc4c(cc32)OCCCO4)c1 (stereo not shown) [Example 75] | 100 |  | 100 |  |
| COc1cc(OC)cc(C2C3=C(COC3=O)Nc3cc(SC)ccc32)c1 (stereo not shown) [Example 84] | 100 |  |  |  |
| COc1cc(OC)cc(C2C3=C(COC3=O)Nc3ccc(OC)cc32)c1 (stereo not shown) [Example 86] | 100 |  | 100 |  |
| COc1cc(OC)cc(C2C3=C(COC3=O)Nc3c2ccc(OC)c3OC)c1 (stereo not shown) [Example 90] | 100 |  | 100 |  |
| COc1cc(OC)cc(C2C3=C(COC3=O)Nc3cc(OC)c(C)cc32)c1 (stereo not shown) [Example 93] | 100 |  | 100 |  |
| CCOc1cc2c(cc1C)C(c1cc(OC)cc(OC)c1)C1=C(COC1=O)N2 (stereo not shown) [Example 99] |  |  | 83 |  |

| SMILES | Kill rate in % after 7^d [1] [%] | Kill rate in % after 7^d [2] [%] | Kill rate in % after 7^d ([4]; 500 g/ha) [%] | also measured |
| --- | --- | --- | --- | --- |
| COc1cc(OC)cc(C2C3=C(COC3=O)Nc3cc(OC)cc(OC)c32)c1 (stereo not shown) [Example 100] | 100 |  |  | Kill rate in % after 7^d ([4]; 100 g/ha): 83% |
| CCOc1cccc(C2C3=C(COC3=O)Nc3cc(OCC)ccc32)c1 (stereo not shown) [Example 103] | 100 |  | 100 |  |
| COc1cc(OC)cc(C2(C)C3=C(COC3=O)Nc3cc4c(cc32)OCO4)c1 (stereo not shown) [Example 107] |  | 90 |  |  |
| CCOc1cccc(C2C3=C(COC3=O)Nc3cc4c(cc32)OCO4)c1 (stereo not shown) [Example 111] | 100 |  |  |  |
| O=C1OCC2=C1C(c1cc(C(F)(F)F)cc(Cl)c1F)c1cc3c(cc1N2)OCO3 (stereo not shown) [Example 113] |  | 95 | 100 |  |
| COc1cc(C2C3=C(COC3=O)Nc3cc4c(cc32)OCO4)cc(Br)c1OC (stereo not shown) [Example 114] |  |  | 83 |  |
| O=C1OCC2=C1C(c1cncc(Br)c1)c1cc3c(cc1N2)OCO3 (stereo not shown) [Example 116] | 100 |  |  |  |
| O=C1OCC2=C1C(c1cc(Br)cc(Br)c1)c1cc3c(cc1N2)OCO3 (stereo not shown) [Example 123] | 100 | 95 |  |  |
| COc1c(Cl)cc(C2C3=C(COC3=O)Nc3cc4c(cc32)OCO4)cc1Cl (stereo not shown) [Example 128] | 83 |  | 100 |  |
| O=C1OCC2=C1C(c1ccc(F)c(Br)c1)c1cc3c(cc1N2)OCO3 (stereo not shown) [Example 129] | 100 | 100 |  |  |
| COc1cc(C2C3=C(COC3=O)Nc3cc4c(cc32)OCO4)cc(O)c1OC (stereo not shown) [Example 130] |  |  | 100 |  |
| COc1cc(C2C3=C(COC3=O)Nc3cc4c(cc32)OCO4)cc2c1OCO2 (stereo not shown) [Example 133] | 83 | 95 | 100 |  |
| N#CCOc1cccc(C2C3=C(COC3=O)Nc3cc4c(cc32)OCO4)c1 (stereo not shown) [Example 136] | 100 |  | 83 |  |
| COc1cc(C2C3=C(COC3=O)Nc3cc4c(cc32)OCO4)ccc1Cl (stereo not shown) [Example 139] | 100 |  | 83 |  |
| O=C1OCC2=C1C(c1ccc(F)c(Cl)c1)c1cc3c(cc1N2)OCO3 (stereo not shown) [Example 140] | 100 |  |  |  |
| COc1ccc(C2C3=C(COC3=O)Nc3cc4c(cc32)OCO4)cn1 (stereo not shown) [Example 142] | 100 |  | 100 |  |
| O=C1OCC2=C1C(c1cc(Br)c3c(c1)OCO3)c1cc3c(cc1N2)OCO3 (stereo not shown) [Example 145] | 100 |  | 83 |  |
| COc1cc(C2C3=C(COC3=O)Nc3cc4c(cc32)OCO4)ccc1F (stereo not shown) [Example 148] | 100 |  |  |  |
| O=C1OCC2=C1C(c1cccc(OCc3ccc(Cl)cc3)c1)c1cc3c(cc1N2)OCO3 (stereo not shown) [Example 149] |  | 85 |  |  |
| COc1cc(OC)c(C2C3=C(COC3=O)Nc3cc4c(cc32)OCO4)cn1 (stereo not shown) [Example 150] |  | 100 |  |  |
| O=C1OCC2=C1C(c1cc(F)c(F)c(F)c1)c1cc3c(cc1N2)OCO3 (stereo not shown) [Example 153] | 100 |  |  |  |
| COc1cc2c(c(C3C4=C(COC4=O)Nc4cc5c(cc43)OCO5)c1)OCO2 (stereo not shown) [Example 155] |  |  | 100 |  |
| O=C1OCC2=C1C(c1cccc(OC(F)(F)C(F)F)c1)c1cc3c(cc1N2)OCO3 (stereo not shown) [Example 157] | 100 |  | 100 |  |
| O=C1OCC2=C1C(c1cccc(OCCO)c1)c1cc3c(cc1N2)OCO3 (stereo not shown) [Example 158] | 100 |  |  |  |
| COc1cc(OC)cc(C2C3=C(COC3=O)Nc3cc(OC)ccc32)c1 (stereo not shown) [Example 161] | 100 | 100 | 100 |  |
| COc1cc(OC)cc(C2C3=C(COC3=O)Nc3ccc(OC)cc32)c1 (stereo not shown) [Example 162] |  | 100 |  |  |
